From patent publication US4072686A, “1-(3,3,3-Triarylalkyl)-4-phenyl-piperidinealkanols” (G. D. Searle & Co., priority 1976, dated 1978)
Read-outs that look alike come from different tables or passages of the source.

Columns and labels:
[1] = Castor oil induced diarrhea in the rat; type: in vivo, rat (adult Charles River male); details: for Potency (relative to diphenoxylate hydrochloride): oral, diphenoxylate = 1.0
Protocol: CASTOR OIL INDUCED DIARRHEA IN THE RAT
Adult Charles River male rats were fasted in community cages for 24 hours prior to the test, with free access to water. The compound was administered intragastrically (suspended on 0.5% methylcellulose) one hour prior to the administration of castor oil at the dose of 1.0 ml/rat intragastrically. The rats were then observed for the presence or absence of diarrhea, at hourly intervals for up to 8 hours past administration of castor oil. The median effective dose values at each hourly interval were calculated for the compound using the method of Berkson (1953). […] For example:
Comparative Oral Antidiarrheal Potency and Duration of 1-(3,3,3-triphenylpropyl)-4-phenyl-4-piperidinemethanol hydrochloride (a) to Diphenoxylate hydrochloride in the Rat Castor Oil Diarrhea Test

[2] = Mouse tail clip test (analgesia); type: in vivo; details: at 100 and 30 mpk
Protocol: (§1) The assessment of the analgesic effect of the instant compounds was conducted in the mouse hot plate and tail clip tests.
(§2) A special clip is applied to the base of the tail of the mouse (adult male weighing 18-25 grams) and the time for the animal to turn around to bite as it is measured. The sensitivity of each mouse is determined one-half hour prior to drug administration. Only those mice attempting to bite the clip are included in the experiment. The test compound is then administered intragastrically and the response to placement of the clip is determined at 30, 60, 90 and 120 minutes after treatment. A response is considered positive if the animal takes more than 2 times the pre-drug time to bite at the clip at any of these time intervals. A test compound is considered active when 50 percent or more of the animals used show a positive response.

[3] = Analgesic effect in the mouse hot plate and tail clip tests; type: in vivo
Protocol: as §1
A mouse (adult male weighing 18-25 grams) is placed in a restraining cylinder on a hot plate with the temperature controlled at 55° ± 0.3° C. The reaction time of the mouse to lick a foot or jump is measured at 60, 40 and 20 minutes before and 30, 60, 90 and 120 minutes after administration of the test compound. The "normal" reaction time is measured as the median of the three pretreatment reaction times. A positive response consists of a reaction time greater than twice the normal time at any of the post treatment times. A dose of the test compound is considered active when 50 percent or more of the animals used show a positive response.
as §2, with “A test compound is considered active when 50 percent or more of the animals used show a positive response.” left out

[4] = Rat2, oral (intragastric), rat, 2 hours after castor oil, read-out: ED50
[5] = oral (intragastric), rat, 3 hours after castor oil, read-out: ED50
[6] = oral (intragastric), rat, 4 hours after castor oil, read-out: ED50
[7] = oral (intragastric), rat, 5 hours after castor oil, read-out: ED50
[8] = oral (intragastric), rat, 6 hours after castor oil, read-out: ED50
[9] = oral (intragastric), rat, 7 hours after castor oil, read-out: ED50
[10] = oral (intragastric), rat, 8 hours after castor oil, read-out: ED50

Row | Structure (SMILES) | ED50 [1, 4] [mg/kg] | ED50 [1, 5] [mg/kg] | ED50 [1, 6] [mg/kg] | ED50 [1, 7] [mg/kg] | ED50 [1, 8] [mg/kg] | ED50 [1, 9] [mg/kg] | ED50 [1, 10] [mg/kg] | other results
1 | CCOC(=O)C1(c2ccccc2)CCN(CCC(c2ccccc2)(c2ccccc2)c2ccccn2)CC1 [ethyl 1-[3,3-diphenyl-3-(2-pyridyl)propyl]-4-phenyl-4-piperidinecarboxylate] |  |  |  |  |  |  |  | ED50 ([1]; Rattus norvegicus, po, 2 h, read-out: ED50 2 hrs. post castor oil): 0.04 mg/kg; analgesia (mouse tail clip test) [2]: weak analgesia
2 | Cl.OCC1(c2ccccc2)CCN(CCC(c2ccccc2)(c2ccccc2)c2ccccc2)CC1 [(a), 1-(3,3,3-triphenylpropyl)-4-phenyl-4-piperidinemethanol hydrochloride] | 0.14 | 0.18 | 0.24 | 0.28 | 0.28 | 0.28 | 0.35 | Potency (relative to diphenoxylate hydrochloride) ([1]; rat, 2 hours after castor oil): 1.35; Potency (relative to diphenoxylate hydrochloride) ([1]; rat, 3 hours after castor oil): 2.25; Potency (relative to diphenoxylate hydrochloride) ([1]; rat, 4 hours after castor oil): 3.25; Potency (relative to diphenoxylate hydrochloride) ([1]; rat, 5 hours after castor oil): 4.33; Potency (relative to diphenoxylate hydrochloride) ([1]; rat, 6 hours after castor oil): 5.71; Potency (relative to diphenoxylate hydrochloride) ([1]; rat, 7 hours after castor oil): 6.44; Potency (relative to diphenoxylate hydrochloride) ([1]; rat, 8 hours after castor oil): 5.42
3 | CCOC(=O)C1(c2ccccc2)CCN(CCC(C#N)(c2ccccc2)c2ccccc2)CC1 [Diphenoxylate, reference compound] | 0.22 | 0.36 | 0.71 | 1.21 | 1.62 | 1.85 | 1.93 | 
4 | OCC1(c2ccccc2)CCN(CCC(c2ccccc2)(c2ccccc2)c2ccccc2)CC1 [1-(3,3,3-triphenylpropyl)-4-phenyl-4-piperidinemethanol] |  |  |  |  |  |  |  | ability to inhibit gastrointestinal motility ([1]; intragastric, rat): very active; analgesic effect [3]: very little analgesic effect
